# Values of other authors as cited in PMC11206399, “In Vitro/In Vivo Correlation of Two Extended-Release Cilostazol Formulations” (Pharmaceuticals, 2024).
# Assays:
# [1] = test system: Caco-2 cell monolayer; parameters: method as in PMID 14603510; conditions: Caco-2 cell monolayer model
# [2] = parameters: method as in PMID 10702883; conditions: humans, oral 100 mg Cilostazol tablet
# [3] = parameters: method as in PMID 4074422
# [4] = test system: platelet aggregation; parameters: method as in doi:10.1111/j.1527-3466.1993.tb00200.x
smiles,measurement,setting,value
O=C1CCc2cc(OCCCCc3nnnn3C3CCCCC3)ccc2N1 [Cilostazol],permeability coefficient,[1],above 1 × 10^−6 cm/s
same,increase of AUC of Cilostazol with high-fat breakfast compared with the fasted condition,[2],25%
same,increase of Cmax of Cilostazol with high-fat breakfast compared with the fasted condition,[2],90%
same,water solubility,[3],3.34 µg/mL
"O=c1ccc2cc(OCCCCc3nnnn3C3CCCCC3)ccc2[nH]1 [OPC-13015, 3,4-dehydrocilostazol]",potency of inhibiting platelet aggregation compared with cilostazol,[4],3 fold
"O=C1CCc2cc(OCCCCc3nnnn3[C@H]3CC[C@H](O)CC3)ccc2N1 [OPC-13213, 4′-trans-hydroxy-cilostazol]",fold less potent than Cilostazol (inhibiting platelet aggregation),[4],3 fold
